Here are results for 19 compounds from US20230348473A1, “SUBSTITUTED PYRIDINES AS PARP1 INHIBITORS” (Xinthera, Inc., priority 2022, published 2023).

As usually defined, the efflux ratio is the permeability from basolateral to apical divided by that in the opposite direction, in the common usage. As usually defined, the IC50 is the concentration needed to halve the response being measured.

Series [1] is described as follows: Caco-2 bidirectional permeability. Type of series: in vitro ADME. Conditions: human; for Papp A→B at 2 h, 5 μM: apical-to-basolateral, read-out: Caco-2 AB; for Papp B→A at 2 h, 5 μM: basolateral-to-apical, read-out: Caco-2 BA; for efflux ratio at 2 h, 5 μM: efflux ratio Papp (B-to-A)/Papp (A-to-B). The procedure:
Following a 1-hr. equilibration period in cell culture medium maintained at 37° C. in an incubator containing a 5% CO2 atmosphere at 95% relative humidity, Corning 96-well HTS Transwell® permeable support plates were seeded with 34,300 Caco-2 cells (ATCC) per well. Following seeding, plates were cultured for 14-18 days with cell culture medium replacement every other day beginning no later than 24 hr. after plating. Monolayer barrier integrity was monitored during the culture period using transepithelial electrical resistance (TEER) measurements taken with a Millicell Epithelial Volt-Ohm system. Caco-2 monolayers were considered ready for use when the TEER value >230 ohm·cm^2. Working stocks of individual test articles were prepared at a concentration of 5 μM by diluting 1 mM stocks prepared in DMSO into 10 mM HEPES. Prior to conducting the assay, Caco-2 plates were washed twice with prewarmed 10 mM HEPES and then equilibrated in 10 mM HEPES for 30 min. at 37° C. Following equilibration, test article flux was tested bidirectionally (in both the apical-to-basolateral and basolateral-to-apical directions) by adding test article working stocks to either the apical or basolateral chambers. Blank 10 mM HEPES was added to the opposite sides. Plates were then incubated at 37° C. for 2 hours. At the end of the incubation, aliquots from both sides of each monolayer were quenched with 4 volumes of ACN containing internal standards. Following a centrifugation step, supernatants were diluted with pure water prior to analysis via LC-MS/MS.
Apparent permeability (Papp, ×10^−6 cm/s) was calculated for all transport assays using the following equation: […]
Where: Papp is apparent permeability (×10^−6 cm/s). • dQ/dt is the rate of drug transport (pmol/s). • A is the surface area of the membrane (cm^2). • D0 is the initial donor concentration (nM; pmol/cm^3).
Efflux ratio was determined by calculating the ratio of the Papp in the basolateral-to-apical direction to the Papp in the apical-to-basolateral direction using the following equation: […]
Where: Papp (B-to-A) is the apparent permeability in the basolateral-to-apical direction. • Papp (A-to-B) is the apparent permeability in the apical-to-basolateral direction.
Background: Caco-2 cells form a polarised layer with tight junctions and transporters.

Series [2] can be described thus: HLM metabolic stability, predicted human hepatic clearance. Format: in vitro ADME. To be noted: well-stirred model, 1 μM. The procedure:
Working stocks of individual test articles were prepared at a concentration of 100 μM by diluting 10 mM stocks prepared in DMSO 100-fold (v:v) into ACN. Thawed hepatic microsomes were suspended in 100 mM potassium phosphate buffer, pH 7.4 to a microsomal protein concentration of 0.562 mg/mL. Diluted microsomes were combined with a solution of 10 mM NADPH, and the mixture was pre-warmed to 37° C. for 8 min. Reactions were initiated by addition of the test article working stocks to achieve a final test article concentration of 1 μM. Final microsomal protein and NADPH concentrations were 0.5 mg/mL and 1 mM, respectively. Incubations containing NADPH were run in duplicate. Test article losses mediated by non-CYP mechanisms were evaluated in a parallel set of incubations run in the absence of NADPH. Incubations lacking NADPH consisted of 1 replicate per test article. Following incubation in a 37° C. water bath, aliquots of individual reactions were quenched with cold ACN containing internal standards at […], 15-, 30-, 60-, 90-, and 120-min. Precipitated protein was pelleted via refrigerated centrifugation. Supernatants were diluted into an equal volume of pure water and mixed well prior to analysis via LC-MS/MS. In vitro intrinsic clearances (CLint) in μL/min/mg were determined for each incubation from calculated in vitro half-lives determined using a standard log-linear regression approach. In vitro CLint values were scaled up using the following physiological scaling factors: 40 mg microsomal protein/g human liver and 25.7 g human liver/kg body weight.

Series [3] in a line: hHEP metabolic stability, predicted human hepatic clearance. To be noted: well-stirred model, 1 μM. Format: in vitro ADME. The procedure: Working stocks of individual test articles were prepared at concentrations of 100 μM by diluting 10 mM stocks prepared in DMSO 100-fold (v:v) into ACN/H2O (50/50, v:v). Human cryopreserved hepatocytes were thawed in a 37° C. water bath in <2 min., suspended in thawing media, and then centrifuged at 100×g for 10 min. Thawing media was aspirated, and pelleted hepatocytes were resuspended into incubation media at 1.5×10^6 cells/mL. Cell viability was determined using an Acridine Orange/Propidium Iodine stain, and hepatocytes were further diluted with incubation media to 0.5×10^6 viable cells/mL. Hepatocyte aliquots of 198 μL were added to wells of a 96-well plate, and test article incubations were initiated by the addition of 2 μL of 100 μM working stocks. Plates were incubated at 37° C. in a 5% CO2 atmosphere at 95% relative humidity on an orbital shaker at 300 rpm. Incubations were performed in duplicate. Following incubation, aliquots of individual reactions were terminated by addition of ACN containing internal standards at 0, 30-, 60-, 90-, 120-, and 240-min. Precipitated protein was pelleted via refrigerated centrifugation. Supernatants were diluted into an equal volume of pure water and mixed well prior to analysis via LC-MS/MS. In vitro intrinsic clearances (CLint) in μL/min/10^6 cells were determined for each incubation from calculated in vitro half-lives determined using a standard log-linear regression approach. In vitro CLint values were scaled up using the following physiological scaling factors: 99×10^6 cells/g human liver and 25.7 g human liver/kg body weight.

In series [4] the target is PARP1 (Homo sapiens (Human), UniProt P09874). Briefly: Biochemical fluorescence polarization (FP) assay, PARPi-FL displacement, PARP1. Type of series: binding. Conditions: 20 nM protein, 3 nM PARPi-FL, 4 h. The protocol:
(§1) To characterize our compounds, we utilized an assay measuring the displacement of a commercially available fluorescently labeled PARP 1/2 inhibitor (PARPi-FL, Tocris Biosciences, #6461) as exemplified in assays performed in WO2014/064149 and WO2021/013735A1. The assay was performed utilizing the following method: Compounds were dissolved in DMSO an Echo550 liquid handler was utilized to make serial dilations in the desired concentration range in Optiplate-384F plates. 100% DMSO was used for the high (with protein) and low (without protein) control samples. 20 nL of compound or DMSO alone was added to individual assay plate wells. […] The PARPi-FL was then added at a final concentration of 3 nM. The assay plate is centrifuged at 1000 rpm for 1 min and incubated for 4 h at room temperature. […] XLFit (equation 201) is used to calculate a reported IC50 for each compound.

For series [5], the target named is PARP2 (Homo sapiens (Human), UniProt Q9UGN5). The series can be described thus: Biochemical fluorescence polarization (FP) assay, PARPi-FL displacement, PARP2. To be noted: 20 nM protein, 3 nM PARPi-FL, 4 h. Type of series: binding. The procedure:
as §1

Some results are limits rather than exact numbers.

Chain of PARP1 (P09874 whole entry): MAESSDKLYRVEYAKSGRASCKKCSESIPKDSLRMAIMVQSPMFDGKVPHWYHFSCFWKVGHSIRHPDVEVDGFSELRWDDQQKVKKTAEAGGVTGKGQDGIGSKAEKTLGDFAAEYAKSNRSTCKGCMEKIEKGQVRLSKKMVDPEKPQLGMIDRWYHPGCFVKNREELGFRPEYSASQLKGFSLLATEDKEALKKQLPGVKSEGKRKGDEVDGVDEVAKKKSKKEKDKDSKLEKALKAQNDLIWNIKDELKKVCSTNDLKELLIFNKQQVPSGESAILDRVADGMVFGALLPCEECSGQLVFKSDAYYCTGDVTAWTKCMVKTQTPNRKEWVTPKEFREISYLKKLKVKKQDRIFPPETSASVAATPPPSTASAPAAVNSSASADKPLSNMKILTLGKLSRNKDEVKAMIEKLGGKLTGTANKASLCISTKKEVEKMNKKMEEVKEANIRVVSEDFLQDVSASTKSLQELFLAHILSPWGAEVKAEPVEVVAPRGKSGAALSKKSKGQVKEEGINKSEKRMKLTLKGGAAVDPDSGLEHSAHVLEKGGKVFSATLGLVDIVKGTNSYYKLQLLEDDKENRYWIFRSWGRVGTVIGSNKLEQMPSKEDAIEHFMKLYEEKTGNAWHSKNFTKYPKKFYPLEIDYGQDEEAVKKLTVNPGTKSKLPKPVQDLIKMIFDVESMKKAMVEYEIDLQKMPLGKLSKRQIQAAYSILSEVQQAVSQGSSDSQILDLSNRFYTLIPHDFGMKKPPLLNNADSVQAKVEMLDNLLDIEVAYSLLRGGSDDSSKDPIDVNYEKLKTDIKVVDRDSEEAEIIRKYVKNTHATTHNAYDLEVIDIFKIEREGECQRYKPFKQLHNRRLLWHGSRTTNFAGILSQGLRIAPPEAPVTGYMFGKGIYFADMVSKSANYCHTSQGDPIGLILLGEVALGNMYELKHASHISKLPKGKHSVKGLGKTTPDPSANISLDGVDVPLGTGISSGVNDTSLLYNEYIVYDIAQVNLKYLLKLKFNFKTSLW
Chain of PARP2 (Q9UGN5 whole entry): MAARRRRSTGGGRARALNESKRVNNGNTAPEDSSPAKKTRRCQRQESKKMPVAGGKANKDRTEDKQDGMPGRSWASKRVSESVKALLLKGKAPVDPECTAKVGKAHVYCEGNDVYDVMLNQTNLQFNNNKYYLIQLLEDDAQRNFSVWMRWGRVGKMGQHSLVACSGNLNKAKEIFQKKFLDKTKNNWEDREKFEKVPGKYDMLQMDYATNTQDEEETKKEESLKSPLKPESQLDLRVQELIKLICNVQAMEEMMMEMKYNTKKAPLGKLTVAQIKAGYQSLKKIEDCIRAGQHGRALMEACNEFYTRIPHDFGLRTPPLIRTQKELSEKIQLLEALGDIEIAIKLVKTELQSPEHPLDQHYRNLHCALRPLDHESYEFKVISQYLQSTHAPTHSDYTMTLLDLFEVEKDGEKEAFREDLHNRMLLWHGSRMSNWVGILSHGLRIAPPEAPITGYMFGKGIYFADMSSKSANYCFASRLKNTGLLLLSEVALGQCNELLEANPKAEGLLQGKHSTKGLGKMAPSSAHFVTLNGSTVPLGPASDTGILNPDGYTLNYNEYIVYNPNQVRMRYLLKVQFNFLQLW

With `CNC(=O)c1ccc(N2CCN(Cc3ccc4c5c(c(=O)[nH]c4c3)CCO5)CC2)c(C)n1` [Comp. Ex. 1, N,6-dimethyl-5-[4-({4-oxo-2H,3H,5H-furo[3,2-c]quinolin-7-yl}methyl)piperazin-1-yl]pyridine-2-carboxamide], in series [1], the Papp A→B at 2 h, 5 μM was 25 nm/s and the Papp B→A at 2 h, 5 μM was 262 nm/s. Moreover, in series [2], the “HLM Clh” value was under 0.24 L/h/kg. The “HHEP Clh” value in series [3] was under 0.198 L/h/kg.

As for `CNC(=O)c1ccc(N2CCN(Cc3ccc4c5c(c(=O)[nH]c4c3)CCO5)CC2)c(Cl)n1` [Comp. Ex. 2, 6-chloro-N-methyl-5-[4-({4-oxo-2H,3H,5H-furo[3,2-c]quinolin-7-yl}methyl)piperazin-1-yl]pyridine-2-carboxamide], in series [1], the Papp A→B at 2 h, 5 μM worked out at 24 nm/s; the Papp B→A at 2 h, 5 μM came out at 219 nm/s; the efflux ratio at 2 h, 5 μM turned out to be 9.3. For the same compound, in series [2], the “HLM Clh” value was 0.252 L/h/kg. Besides, the “HHEP Clh” value in series [3] was 0.396 L/h/kg.

On to `CNC(=O)c1ccc(N2CCN(Cc3cc(F)c4c5c(c(=O)[nH]c4c3)COC5)CC2)c(F)n1` [Comp. Ex. 3, 6-fluoro-5-(4-((9-fluoro-4-oxo-1,3,4,5-tetrahydrofuro[3,4-c]quinolin-7-yl)methyl)piperazin-1-yl)-N-methylpicolinamide], for which, in series [1], the Papp A→B at 2 h, 5 μM was 8 nm/s; the Papp B→A at 2 h, 5 μM turned out to be 55 nm/s; the efflux ratio at 2 h, 5 μM came to 7.3. Moreover, the “HLM Clh” value in series [2] was 0.432 L/h/kg. The “HHEP Clh” value in series [3] was 0.426 L/h/kg.

As to `CNC(=O)c1ccc(N2CCN(Cc3ccc4c5c(c(=O)[nH]c4c3F)CCC5)CC2)c(F)n1` [Comp. Ex. 4], in series [1], the Papp A→B at 2 h, 5 μM amounted to 115 nm/s and the Papp B→A at 2 h, 5 μM was 145 nm/s. Further, the “HLM Clh” value in series [2] is 0.69 L/h/kg. Moreover, the “HHEP Clh” value in series [3] is 0.87 L/h/kg.

Regarding `O=C(NC1CC1)c1ccc(N2CCN(Cc3ccc4c([nH]c(=O)c5ccnn54)c3F)CC2)c(F)n1` [Example 3], the results for the half-inhibitory concentration (IC50) in series [4] and in series [5] were 0.022 µM and over 100 µM, respectively.

Turning to `Cc1cc2c(=O)[nH]c3c(F)c(CN4CCN(c5ccc(C(=O)NC6CC6)nc5F)CC4)ccc3n2n1` [Example 4], the half-maximal inhibitory concentration (IC50) is 0.016 µM in series [4] and over 100 µM in series [5].

Take `CNC(=O)c1ccc(N2CCN(Cc3ccc4c([nH]c(=O)c5cc(C)nn54)c3F)CC2)c(F)n1` [Example 5]: the IC50 in series [4] was 0.041 µM; in series [5] it was over 100 µM.

For the compound `CNC(=O)c1ccc(N2CCN(Cc3ccc4c([nH]c(=O)c5ccoc54)c3F)CC2)c(F)n1` [Example 6, 6-fluoro-5-[4-({6-fluoro-4-oxo-5H-furo[3,2-c]quinolin-7-yl}methyl)piperazin-1-yl]-N-methylpyridine-2-carboxamide], the results for the half-maximal inhibitory concentration (IC50) in series [4] and in series [5] were 0.021 µM and over 100 µM, respectively.

Regarding `CNC(=O)c1ccc(N2CCN(Cc3ccc4c([nH]c(=O)n5cccc45)c3F)CC2)c(F)n1` [Example 7, 6-fluoro-5-[4-({7-fluoro-5-oxo-6H-pyrrolo[1,2-c]quinazolin-8-yl}methyl)piperazin-1-yl]-N-methylpyridine-2-carboxamide], the half-inhibitory concentration (IC50) was 0.018 µM in series [4] and over 100 µM in series [5].

Take `O=C(NCC(F)F)c1ccc(N2CCN(Cc3ccc4c([nH]c(=O)c5ccoc54)c3F)CC2)c(F)n1` [Example 11]: the results for the IC50 in series [4] and in series [5] were 0.014 µM and over 100 µM, respectively.

`Cc1cc2c(=O)[nH]c3c(F)c(CN4CCN(c5ccc(C(=O)NCC(F)F)nc5F)CC4)ccc3n2n1` [Example 13]: the values for the half-maximal inhibitory concentration (IC50) in series [4] and in series [5] were 0.025 µM and over 100 µM, respectively.

In the case of `O=C(NC1CC1)c1ccc(N2CCN(Cc3ccc4c([nH]c(=O)c5ccoc54)c3F)CC2)c(F)n1` [Example 14], the IC50 in series [4] was 0.01 µM; in series [5] it was over 100 µM.

Turning to `O=C(NCC(F)F)c1ccc(N2CCN(Cc3ccc4c5c(c(=O)[nH]c4c3F)CCO5)CC2)c(F)n1` [Example 15], the half-inhibitory concentration (IC50) was 0.012 µM in series [4] and over 100 µM in series [5].

As for `COCCNC(=O)c1ccc(N2CCN(Cc3ccc4c([nH]c(=O)c5cc(C)nn54)c3F)CC2)c(F)n1` [Example 17], the figures for the concentration for half-maximal inhibition (IC50) in series [4] and in series [5] were 0.014 µM and over 100 µM, respectively.

As to `CNC(=O)c1ccc(N2CCN(Cc3ccc4c([nH]c(=O)c5cnn(C)c54)c3F)CC2)c(F)n1` [Example 19, 6-fluoro-5-[4-({6-fluoro-1-methyl-4-oxo-5H-pyrazolo[4,3-c]quinolin-7-yl}methyl)piperazin-1-yl]-N-methylpyridine-2-carboxamide], the results for the half-inhibitory concentration (IC50) in series [4] and in series [5] were 0.1 µM and over 100 µM, respectively.

On to `CNC(=O)c1ccc(N2CCN(Cc3ccc4c([nH]c(=O)c5cn(C)nc54)c3F)CC2)c(F)n1` [Example 20, 6-fluoro-5-[4-({6-fluoro-2-methyl-4-oxo-5H-pyrazolo[4,3-c]quinolin-7-yl}methyl)piperazin-1-yl]-N-methylpyridine-2-carboxamide], for which the half-inhibitory concentration (IC50) in series [4] was 0.011 µM; in series [5] it was over 100 µM.

As for `CNC(=O)c1ccc(N2CCN(Cc3ccc4c([nH]c(=O)c5c(C)cnn54)c3F)CC2)c(F)n1` [Example 23], the IC50 was 0.026 µM in series [4] and over 100 µM in series [5].

`CNC(=O)c1ccc(N2CCN(Cc3ccc4c5c(c(=O)[nH]c4c3F)CCO5)CC2)cn1` [Example 26]: the concentration for half-maximal inhibition (IC50) was 0.013 µM in series [4] and over 100 µM in series [5].

With `CNC(=O)c1ccc(N2CCN(Cc3ccc4c([nH]c(=O)c5c(F)cnn54)c3F)CC2)c(F)n1` [Example 28, 5-[4-({3,6-difluoro-4-oxo-5H-pyrazolo[1,5-a]quinoxalin-7-yl}methyl)piperazin-1-yl]-6-fluoro-N-methylpyridine-2-carboxamide], the half-maximal inhibitory concentration (IC50) in series [4] is 0.01 µM; in series [5], over 100 µM.
